Experimental data reported in patent US12377074B2, “Treatment for Wolfram syndrome” (YALE UNIVERSITY, priority 2019, dated 2025).
pEC50: −log10 of the molar value. Entries after “also recorded” stand apart in the source; their conditions may differ.

Key:
[1] = test system: INS-1 cells (WT); assay: Cell survival after high glucose, WT INS-1 cells (first set); assay type: cell-based, rat; conditions: for cell survival after treatment with 31 mM glucose for 48 hours (glucose induced cell death): survival normalized to % survival at 1 mM glucose
Experimental: (§1) Survival is normalized to % survival at 1 mM glucose.
as §1

[2] = test system: WFS1 KO INS-1 cells; assay: Cell survival after high glucose, WFS1 KO INS-1 cells (first set); assay type: cell-based, rat; conditions: for cell survival after treatment with 31 mM glucose for 48 hours (glucose induced cell death): 31 mM glucose 48 h, survival normalized to % survival at 1 mM glucose
Experimental: as §1
The concentration range for protection from cell death by high glucose in WFS1 KO cells is similar.

[3] = test system: WFS1-KO INS1 cells; assay: CellTiter-Glo cell viability assay, WFS1-KO cells; assay type: cell-based, rat; conditions: for cell viability after hyperglycemia / cell viability at baseline: WFS1-KO cells; for cell viability after hyperglycemia: 30 mM additional glucose (30G) 48 h, normalized to CTRL, 10 μM in FIG. 19C; for cell viability at baseline: no additional glucose
Experimental: CellTiter-Glo™ (CTG) assay (Promega) was used to quantify ATP-dependent bioluminescence as an indicator of cell viability. […] After treatment was completed, 100 μL of CTG solution was added to each well and 20 minutes later, reading was performed using a Tecan Infinite M1000 Pro microplate reader using the following setting: 5 s orbital shaking (3 mm, 216 rpm), followed by imaging in luminescence mode with 500 ms integration time.
Because intracellular calcium is an important determinant of cell viability, we measured cell viability in WFS1-WT and WFS1-KO cells. A luminescent, ATP-based assay was used.

[4] = test system: WFS1-OE INS1 cells; assay: CellTiter-Glo cell viability assay, WFS1-OE cells; assay type: cell-based, rat; conditions: 30 mM additional glucose (30G) 48 h
Experimental: (§2) CellTiter-Glo™ (CTG) assay (Promega) was used to quantify ATP-dependent bioluminescence as an indicator of cell viability. To assess cell viability, INS1 cells were plated in white 96-well plates (Cat. 07-200-628, Fisher Scientific) at a density of 2×10^3 cells per well and treated the following day with high glucose and/or the indicated drugs for 48 hours before imaging. After treatment was completed, 100 μL of CTG solution was added to each well and 20 minutes later, reading was performed using a Tecan Infinite M1000 Pro microplate reader using the following setting: 5 s orbital shaking (3 mm, 216 rpm), followed by imaging in luminescence mode with 500 ms integration time.
(§3) Because intracellular calcium is an important determinant of cell viability, we measured cell viability in WFS1-WT and WFS1-KO cells. A luminescent, ATP-based assay was used. […] Following hyperglycemia (additional 30 mM glucose for 48 h), we observed an approximately 40% reduction in cell viability in WFS1-KO cells, whereas cell viability in WFS1-WT cells was only 15% lower than under control conditions (FIG. 19C). WFS1-KO cells could be rescued by WFS1 re-expression (SI Appendix, FIG. S5A). These findings are supported by previous reports showing that WFS1 deficiency causes progressive loss of pancreatic β-cells.

[5] = test system: WFS1-WT INS1 cells; assay: Resting cytosolic calcium imaging (Fura-2-AM), WFS1-WT cells; assay type: cell-based, rat; conditions: 10 μM, 24 h treatment
Experimental: (§4) 2×10^5 cells were plated on each coverslip 2 days before imaging in INS1 medium without G418. HEPES-buffered saline (140 mM NaCl. 1.13 mM MgCl2, 4.7 mM KCL, 2 mM CaCl2, 10 mM D-glucose, and 10 mM HEPES, adjusted to pH 7.4 with NaOH) was used to prepare calcium dye solution and during imaging. In calcium-free HEPES buffer, CaCl2 was replaced with MgCl2 and 0.1 mM EGTA was added to chelate calcium. Fura-2-AM dye powder (Thermo Fisher) was dissolved to 4 μM in calcium-containing HEPES buffer supplemented with 0.03% Pluronic acid (Thermo Fisher). On the day of imaging, each coverslip was incubated in dye solution for 45 min in the dark at room temperature. Each coverslip was then washed 3 times in HEPES-buffered saline solution before calcium imaging began. Calcium measurements were performed with a Hammamatsu Orca R2 camera attached to a Zeiss microscope with a Sutter Lambda DG4 for excitation ratio imaging. Cells were imaged using sequential excitation at 340/380 nm (Fura-2-AM). Images were acquired with emission bandwidth of 501 to 550 nm every second. The raw 340 and 380 signals for each cell were subtracted by corresponding background signal before a 340/380 ratio was calculated. Max amplitude and area under the curve were calculated using PRISM Statistical Software 8. Rate of rise was quantified as the gradient between 25% and 75% maximum amplitude. […]

[6] = test system: WFS1-WT INS1 cells; assay: Glucose-stimulated insulin secretion (insulin ELISA), WFS1-WT cells; assay type: cell-based, rat; conditions: 10 μM drug, 24 h
Experimental: (§5) For glucose-stimulated insulin secretion studies, INS1 cells were plated on 6-well plates at a density of 6×10^5 cells per well. After 24 hours, cells were incubated with drugs for another 24 hours. Two days after plating, the insulin ELISA assays were performed following a previously published protocol. In detail, preincubating cells in DMEM-base (Sigma) supplemented with 2.5 mM glucose for 1.5 h was followed by a 45 min incubation in DMEM-base with either 2.5 mM glucose for basal secretion or 9 mM glucose for stimulated secretion as indicated. 200 μl of supernatant were collected for analysis of insulin concentration using the Rat High Range ELISA kit (80-INSRTH-E01, ALPCO). Cells were washed with ice cold PBS and lysed in 1 mL 0.1% Triton X-100. Insulin levels were normalized to total protein measured by Micro BCA protein assay kit (23235, Thermo Fisher Scientific).

[7] = test system: WFS1-WT INS1 cells; assay: CellTiter-Glo cell viability assay, WFS1-WT cells; assay type: cell-based, rat; conditions: 30 mM additional glucose (30G) 48 h, normalized to CTRL, 10 μM in FIG. 19C
Experimental: as §2, §3

[8] = test system: WFS1-KO INS1 cells; assay: Glucose-stimulated insulin secretion (insulin ELISA), WFS1-KO cells; assay type: cell-based, rat; conditions: 10 μM drug; for glucose-stimulated insulin secretion: 9 mM glucose stimulation; for difference in glucose-stimulated insulin secretion between WFS1-WT and WFS1-KO cells: after stimulation with 9 mM glucose
Experimental: as §5

[9] = test system: WFS1-KO INS1 cells; assay: Resting cytosolic calcium imaging (Fura-2-AM), WFS1-KO cells; assay type: cell-based, rat; conditions: 10 μM, 24 h treatment
Experimental: as §4

[10] = test system: WFS1-deficient cells; conditions: cited from earlier work
[11] = cited from earlier work
[12] = test system: calpain activity in INS-1 cells; conditions: siRNA against WFS1, 10 μM dantrolene 48 h, then 0.5 μM thapsigargin 6 h, cleaved spectrin relative to GAPDH; cited from earlier work
[13] = test system: WFS1-deficient cells; conditions: cited from earlier work; remark: listed apart in the source

Row | Compound | cell survival after treatment with 31 mM glucose for 48 hours (glucose induced cell death) ([1]; 31 mM glucose 48 h) | cell survival after treatment with 31 mM glucose for 48 hours (glucose induced cell death) [2] | cell viability after hyperglycemia [3] | cell viability at baseline [3] | cell viability after hyperglycemia [4] | resting cytosolic calcium [5] | cell viability after hyperglycemia [7] | glucose-stimulated insulin secretion ([8]; WFS1-KO cells, 24 h) | difference in glucose-stimulated insulin secretion between WFS1-WT and WFS1-KO cells [8] | resting cytosolic calcium [9] | further results
1 | CCCC(CCC)C(=O)O [valproic acid] | no effect | no effect | – | – | – | – | – | – | – | – | cell survival after treatment with 31 mM glucose for 48 hours (glucose induced cell death) ([1]; 31 mM glucose 48 h, listed as valproate): no effect on survival; cell survival after treatment with 31 mM glucose for 48 hours (glucose induced cell death) ([2]; listed as valproate): no effect on survival
2 | CCC(NC(=O)OCc1ccccc1)C(=O)C(=O)NCCCN1CCOCC1 (centres unmarked) [calpain inhibitor XI] | – | – | fully rescued cell viability back to baseline; also recorded: rescued cell viability back to normal level | did not significantly affect cell viability | fully rescued cell viability back to baseline | without affecting | fully rescued cell viability back to baseline | reversed the impairment; also recorded: can be reversed | ameliorated the difference | lowered the resting cytosolic calcium in WFS1-KO cells to the level of WFS1-WT cells; also recorded: reversed elevated cytosolic calcium | high glucose-induced loss of cell viability, dose dependence ([3]; WFS1-KO cells (clone #1), high glucose, dose series): reversed glucose toxicity-induced loss of cell viability in a dose-dependent manner; also recorded: dose-dependently reversed; cell viability after hyperglycemia ([3]; listed as C.I.): rescued; insulin secretion [6]: did not affect; cell viability after hyperglycemia ([7]; listed as C.I.): rescued
3 | CN(C)CCCN1c2ccccc2Sc2ccc(Cl)cc21 [chlorpromazine] | no effect | no effect | – | – | – | – | – | – | – | – | cell survival after treatment with 31 mM glucose for 48 hours (glucose induced cell death) ([1]; 31 mM glucose 48 h, listed as chlorprmazine): no effect on survival; cell survival after treatment with 31 mM glucose for 48 hours (glucose induced cell death) ([2]; listed as chlorprmazine): no effect on survival
4 | [Li] [lithium] | no effect | no effect | – | – | – | – | – | – | – | – | –
5 | CC(C)C(=O)c1c(C(C)C)nn2ccccc12 [ibudilast] | rescued viability; also recorded: did protect cell survival | rescued viability | fully rescued cell viability back to baseline; also recorded: rescued cell viability back to normal level | did not significantly affect cell viability; also recorded: slightly raised cell viability | fully rescued cell viability back to baseline | without affecting | fully rescued cell viability back to baseline | reversed the impairment; also recorded: can be reversed | ameliorated the difference | lowered the resting cytosolic calcium in WFS1-KO cells to the level of WFS1-WT cells; also recorded: reversed elevated cytosolic calcium | cell viability after hyperglycemia ([3]; listed as IBU): rescued; cell survival at low (normal) glucose ([1]; 1 mM glucose): no effect; also recorded: does not alter cell survival; concentration giving nearly full recovery/protection of survival ([1]; 31 mM glucose 48 h): 1 µM; pEC50 ([1]; 31 mM glucose 48 h, read-out: half max effect on survival): ~6.52; insulin secretion at baseline ([6]; 2.5 mM glucose): enhanced insulin secretion at baseline; concentration range for protection from cell death by high glucose, compared with WT ([2]; high glucose): similar; cell viability after hyperglycemia ([7]; listed as IBU): rescued; insulin secretion at baseline ([8]; WFS1-KO cells, 2.5 mM glucose, 24 h): enhanced insulin secretion at baseline
6 | O=C1CN(/N=C/c2ccc(-c3ccc([N+](=O)[O-])cc3)o2)C(O)=N1 [Dantrolene, dantrolene] | – | – | – | – | – | – | – | – | – | – | apoptosis [10]: suppressed; side effects of prolonged use [11]: liver toxicity; calpain activity [12]: reduced; cytosolic calcium levels [13]: restored
